Test results from US12668571B2, “Substituted 3-amino-4-methylbenzenesulfonamides as small molecule inhibitors of ubiquitin-specific protease 28” (Dana-Farber Cancer Institute, Inc., priority 2020, dated 2026).

Molecular target: T1, USP28 (Homo sapiens, UniProt Q96RU2)
T1 sequence (Q96RU2 1-1077): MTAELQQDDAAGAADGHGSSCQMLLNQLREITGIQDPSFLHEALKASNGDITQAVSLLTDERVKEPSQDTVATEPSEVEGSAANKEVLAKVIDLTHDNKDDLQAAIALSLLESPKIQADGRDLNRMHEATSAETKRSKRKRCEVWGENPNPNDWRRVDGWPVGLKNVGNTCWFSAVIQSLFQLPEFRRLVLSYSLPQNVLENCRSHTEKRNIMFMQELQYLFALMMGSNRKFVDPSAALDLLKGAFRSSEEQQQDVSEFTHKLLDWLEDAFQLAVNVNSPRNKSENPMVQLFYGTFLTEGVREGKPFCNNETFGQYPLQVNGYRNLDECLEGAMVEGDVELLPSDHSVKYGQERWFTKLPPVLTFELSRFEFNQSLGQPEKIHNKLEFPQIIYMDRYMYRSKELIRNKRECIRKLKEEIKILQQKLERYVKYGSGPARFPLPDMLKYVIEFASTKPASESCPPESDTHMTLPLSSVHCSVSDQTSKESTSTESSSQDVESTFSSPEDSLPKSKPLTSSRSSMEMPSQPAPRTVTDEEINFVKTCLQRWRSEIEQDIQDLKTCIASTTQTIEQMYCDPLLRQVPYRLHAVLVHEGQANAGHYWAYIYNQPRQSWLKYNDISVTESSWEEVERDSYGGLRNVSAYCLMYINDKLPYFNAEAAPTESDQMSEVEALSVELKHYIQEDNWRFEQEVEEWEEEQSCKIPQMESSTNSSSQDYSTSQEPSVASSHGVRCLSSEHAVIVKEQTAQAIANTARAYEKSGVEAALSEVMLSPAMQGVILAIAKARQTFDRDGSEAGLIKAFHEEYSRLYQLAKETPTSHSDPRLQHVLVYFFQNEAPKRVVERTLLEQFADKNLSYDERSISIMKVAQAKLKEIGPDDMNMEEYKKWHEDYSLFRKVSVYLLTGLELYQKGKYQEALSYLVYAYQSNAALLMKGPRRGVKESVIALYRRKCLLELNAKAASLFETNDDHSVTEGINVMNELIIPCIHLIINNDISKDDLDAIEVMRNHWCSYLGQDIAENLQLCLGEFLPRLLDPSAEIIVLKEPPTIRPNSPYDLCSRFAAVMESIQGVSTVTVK
Experiment: Ubiquitin-Rhodamine110 assay
Assay type: biochemical
Details: USP28 at 1 nM, 30 minutes pre-incubation at room temperature, Ubiquitin-Rho110 substrate 125 nM
Protocol: USP28 (at 1 nM) was pre-incubated with different concentrations of inhibitors or DMSO as a control in 50 mM Tris pH 8, 50 mM NaCl, 0.002% Tween-20, 5 mM DTT. Compounds and protein were incubated for 30 minutes at room temperature prior to the addition of Ubiquitin-Rho110 (Boston Biochem) substrate for a final concentration of 125 nM. The initial rate of the reaction was measured by collecting fluorescence data at one-minute interval over 30-minute period using a Clariostar® fluorescence plate reader at excitation and emission wavelength of 485 nm and 535 nm, respectively. The calculated initial rate values were plotted against inhibitor concentrations to determine IC50s. All the experimental data were plotted using GraphPad Prism®.

Row | Compound | IC50 [µM]
1 | Cc1ccc(S(=O)(=O)N(C)C)cc1NC(=O)Cc1ccc([N+](=O)[O-])cc1 [Compound 4] | 10 to 100
2 | Cc1ccc(S(=O)(=O)N(C)C)cc1NC(=O)Cc1ccc(O)cc1 [Compound 5] | > 100
3 | CS(=O)(=O)c1cccc(NC(=O)Cc2ccc(Cl)c(Cl)c2)c1 [Compound 6] | 10 to 100
4 | Cc1ccc(S(=O)(=O)N(C)C)cc1NC(=O)CCc1ccccc1 [Compound 7] | > 100
5 | Cc1ccc(S(=O)(=O)N(C)C)cc1NC(=O)Cc1ccc(-c2ccccc2)cc1 [Compound 9] | > 100
6 | CN(C)S(=O)(=O)c1cccc(NC(=O)Cc2ccc(Cl)c(Cl)c2)c1 [Compound 13] | 10 to 100
7 | CN(C)S(=O)(=O)c1ccc(OC(F)(F)F)c(NC(=O)Cc2ccc(Cl)c(Cl)c2)c1 [Compound 18] | 10 to 100
8 | CN(C)S(=O)(=O)c1ccc(NCc2ccccc2)c(NC(=O)Cc2ccc(Cl)c(Cl)c2)c1 [Compound 19] | > 100
9 | Cc1ccc(C(=O)NCc2ccccc2)cc1NC(=O)Cc1ccc(Cl)c(Cl)c1 [Compound 22] | 1 to 10
10 | CN(C)S(=O)(=O)c1ccc2[nH]c(Cc3ccc(Cl)c(Cl)c3)nc2c1 [Compound 27] | > 100
11 | Cc1ccc(S(=O)(=O)Nc2ccc(-n3ccnc3)cc2)cc1NC(=O)Cc1ccc(Cl)c(Cl)c1 [Compound 29] | 1 to 10

The next lines start with the values.

Row | IC50 [µM] | Compound
12 | < 1 | Cc1ccc(S(=O)(=O)N(C)C)cc1NC(=O)Cc1ccc(Cl)c(Cl)c1 [Compound 1]
13 | 1 to 10 | Cc1ccc(S(=O)(=O)N(C)C)cc1NC(=O)Cc1ccccc1 [Compound 2]
14 | 1 to 10 | Cc1ccc(S(=O)(=O)N(C)C)cc1NC(=O)Cc1cccc(C(F)(F)F)c1 [Compound 3]
15 | 1 to 10 | CCN(CC)S(=O)(=O)c1cccc(NC(=O)Cc2ccc(Cl)c(Cl)c2)c1 [Compound 8]
16 | 1 to 10 | Cc1ccc(S(=O)(=O)N(C)C)cc1NC(=O)CN1CCN(C)CC1 [Compound 10]
17 | < 1 | Cc1ccc(S(=O)(=O)N2CCCCC2)cc1NC(=O)Cc1ccc(Cl)c(Cl)c1 [Compound 11]
18 | < 1 | Cc1ccc(S(=O)(=O)Nc2ccccc2)cc1NC(=O)Cc1ccc(Cl)c(Cl)c1 [Compound 12]
19 | < 1 | Cc1ccc(S(=O)(=O)NCc2ccccc2)cc1NC(=O)Cc1ccc(Cl)c(Cl)c1 [Compound 14]
20 | < 1 | Cc1ccc(S(=O)(=O)Nc2ccc(N3CCN(C)CC3)cc2)cc1NC(=O)Cc1ccc(Cl)c(Cl)c1 [Compound 15]
21 | < 1 | CN(C)S(=O)(=O)c1ccc(Cl)c(NC(=O)Cc2ccc(Cl)c(Cl)c2)c1 [Compound 16]
22 | 1 to 10 | CCc1ccc(S(=O)(=O)N(C)C)cc1NC(=O)Cc1ccc(Cl)c(Cl)c1 [Compound 17]
23 | < 1 | Cc1ccc(S(=O)(=O)N(C)C)cc1C(=O)NCc1cccc(Cl)c1 [Compound 20]
24 | < 1 | Cc1ccc(S(=O)(=O)N(C)C)cc1C(=O)NCc1ccc(Cl)c(Cl)c1 [Compound 21]
25 | < 1 | Cc1ccc(S(=O)(=O)Nc2ccccc2)cc1NC(=O)Cc1ccc2ccccc2c1 [Compound 23]
26 | < 1 | Cc1ccc(S(=O)(=O)NCc2ccccc2)cc1NC(=O)c1ccc(Cl)c(Cl)c1 [Compound 24]

Molecular target: T1, USP28
Experiment: Competitive activity-based protein profiling (target engagement, Ub-VME probe, Western blot)
Assay type: binding
Details: K562 cells lysed, treated with compound for 1 h, then incubated with Ub-VME
Protocol: K562 cells were lysed and treated with indicated concentrations of compound 1 for 1 h followed by incubation with Ub-VME. Ub-VME covalently modifies USP28, resulting in higher MW band observed by Western blot.
Cells were pelleted, washed with PBS buffer, lysed on ice (20 mM Tris pH 8, 150 mM NaCl, 1% NP-40, 10% glycerol, 1 mM TCEP, phosphatase inhibitor cocktails (Sigma P5726 and Calbiochem 524624), and protease inhibitors (pepstatin, leupeptin, PMSF, and aprotinin), and clarified by centrifugation. Protein content was quantified by BCA and diluted to 2 mg/mL in lysis buffer. Compounds were added at desired concentrations and incubated at room temperature for […]. Samples were then supplemented with 2 uM […] and incubated at room temperature with shaking for 15 minutes. Reactions were quenched with 4×LDS sample buffer (Thermo Fisher B0007) supplemented with 10% BME, vortexed vigorously, and heated to 95° C. for 5 minutes. Samples were resolved by SDS-PAGE and analyzed by Western blot with the indicated antibodies.

Row | Compound | labeling of USP28 by covalent Ub-VME probe (Western blot, FIG. 2)
27 | Cc1ccc(S(=O)(=O)N(C)C)cc1NC(=O)Cc1ccc(Cl)c(Cl)c1 [Compound 1] | prevents labeling of USP28 by the covalent Ub-VME probe
